Columns and labels:
[1] = target: T1, METTL3-14 complex (Homo sapiens, UniProt Q86U44); assay: METTL3-14 enzyme-based bioluminescence assay (screening assay); type: biochemical; conditions: for inhibition at 60 µM: read-out: % inhibition of METTL3-14 at 60 μM, 60 μM compound; for Km: Michaelis-Menten, Figure S1, read-out: Km of METTL3-14 substrates
T1 construct: genes encoding the full-length and MTase domain of human METTL3; METTL3-14 FL: full length of METTL3-14; 10x His (thrombin-cleavable) (cleaved yes); made in house; host or cells: Trichoplusia ni (Hi5) cells co-infected with two baculoviruses (virus made in Sf9)
T1 sequence (Q86U44 whole entry, the tested form may be a part): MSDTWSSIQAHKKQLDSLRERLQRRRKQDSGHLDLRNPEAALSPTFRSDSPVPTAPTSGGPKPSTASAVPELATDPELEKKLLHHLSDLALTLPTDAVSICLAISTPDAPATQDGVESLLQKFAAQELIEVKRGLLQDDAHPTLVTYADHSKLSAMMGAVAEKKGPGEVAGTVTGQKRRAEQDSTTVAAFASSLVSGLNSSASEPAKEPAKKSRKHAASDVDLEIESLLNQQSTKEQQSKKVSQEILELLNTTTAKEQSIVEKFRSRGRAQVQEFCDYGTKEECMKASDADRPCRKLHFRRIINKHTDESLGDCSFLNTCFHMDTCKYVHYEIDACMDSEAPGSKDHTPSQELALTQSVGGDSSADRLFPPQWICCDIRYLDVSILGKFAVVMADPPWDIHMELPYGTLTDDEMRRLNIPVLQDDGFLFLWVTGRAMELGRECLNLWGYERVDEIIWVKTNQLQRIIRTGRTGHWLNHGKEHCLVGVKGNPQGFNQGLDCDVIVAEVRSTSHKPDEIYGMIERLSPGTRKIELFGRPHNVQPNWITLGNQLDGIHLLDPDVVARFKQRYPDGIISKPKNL
T1 sequence (Q9HCE5 whole entry partner, the tested form may be a part): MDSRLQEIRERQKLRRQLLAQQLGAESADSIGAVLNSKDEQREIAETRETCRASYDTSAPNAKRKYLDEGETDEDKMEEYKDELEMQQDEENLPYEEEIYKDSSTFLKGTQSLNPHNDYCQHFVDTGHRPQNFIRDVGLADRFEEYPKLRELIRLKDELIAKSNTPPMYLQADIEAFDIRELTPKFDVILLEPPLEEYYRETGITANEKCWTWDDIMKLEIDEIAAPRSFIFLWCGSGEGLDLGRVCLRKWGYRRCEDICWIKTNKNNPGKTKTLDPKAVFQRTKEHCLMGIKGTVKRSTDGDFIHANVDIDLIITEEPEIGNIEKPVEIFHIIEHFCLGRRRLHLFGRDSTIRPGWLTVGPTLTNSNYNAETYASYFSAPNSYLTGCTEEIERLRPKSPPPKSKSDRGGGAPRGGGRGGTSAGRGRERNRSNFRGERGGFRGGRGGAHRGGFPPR
Protocol: An enzymatic bioluminescence assay was established to identify the METTL3-14 inhibitor through screening. […] METTL3-14 activity was assessed by measuring the luminescence using a Victor multilabel reader (PerkinElmer, Waltham, MA, USA). The IC50 values were calculated by a nonlinear regression analysis using OriginPro 9.1 software (OriginLab).
To confirm the mechanism of action of eltrombopag in the METTL3-14 complex, 30 nM METTL3-14 and serially diluted eltrombopag were reacted with various concentrations of SAM or RNA substrate and saturating concentrations of the other substrate (3 μM SAM or 2 μM RNA substrate) for 20 min. To evaluate the inhibitory activity in a single form of METTL3 and METTL14, 1 μM of METTL3 and 300 nM of METTL14 were incubated with 1 μM of SAM, 500 nM of RNA substrates, and serially diluted eltrombopag for 5 h. To measure the inhibitory activity in the truncated form of the METTL3-14 complex, 1 μM of the truncated METTL3-14 complex was reacted with 1 μM of SAM, 500 nM of RNA substrates, and serially diluted eltrombopag for 5 h.

[2] = system: m^6A/A on poly-A+-enriched mRNA of MOLM-13 cells; set-up: method as in PMID 34237194; conditions: cited from earlier work
[3] = target: T2, MLL4 complex (Homo sapiens, UniProt Q9UMN6); assay: Methyltransferase selectivity panel (MT HotSpot radioisotope assay), MLL4 complex; type: biochemical; conditions: positive control
T2 construct: purchased Reaction Biology (Malvern, PA, USA), contract assay
Protocol: (§1) The selectivity profile of eltrombopag was investigated by testing the level of inhibition in a methyltransferase panel. The inhibition of 7 […] methyltransferase was tested at Reaction Biology (Malvern, PA, USA) using a gold standard radioisotope-based MT assay (MT HotSpot^TM) with 10 μM of eltrombopag in duplicate.

[4] = target: T3, PRDM9 (Homo sapiens, UniProt Q9NQV7); assay: Methyltransferase selectivity panel (MT HotSpot radioisotope assay), PRDM9; type: biochemical; conditions: positive control
T3 construct: purchased Reaction Biology (Malvern, PA, USA), contract assay
Protocol: as §1

[5] = target: T4, SETD2 (Homo sapiens, UniProt Q9BYW2); assay: Methyltransferase selectivity panel (MT HotSpot radioisotope assay), SETD2; type: biochemical; conditions: positive control
T4 construct: purchased Reaction Biology (Malvern, PA, USA), contract assay
T4 sequence (Q9BYW2 whole entry): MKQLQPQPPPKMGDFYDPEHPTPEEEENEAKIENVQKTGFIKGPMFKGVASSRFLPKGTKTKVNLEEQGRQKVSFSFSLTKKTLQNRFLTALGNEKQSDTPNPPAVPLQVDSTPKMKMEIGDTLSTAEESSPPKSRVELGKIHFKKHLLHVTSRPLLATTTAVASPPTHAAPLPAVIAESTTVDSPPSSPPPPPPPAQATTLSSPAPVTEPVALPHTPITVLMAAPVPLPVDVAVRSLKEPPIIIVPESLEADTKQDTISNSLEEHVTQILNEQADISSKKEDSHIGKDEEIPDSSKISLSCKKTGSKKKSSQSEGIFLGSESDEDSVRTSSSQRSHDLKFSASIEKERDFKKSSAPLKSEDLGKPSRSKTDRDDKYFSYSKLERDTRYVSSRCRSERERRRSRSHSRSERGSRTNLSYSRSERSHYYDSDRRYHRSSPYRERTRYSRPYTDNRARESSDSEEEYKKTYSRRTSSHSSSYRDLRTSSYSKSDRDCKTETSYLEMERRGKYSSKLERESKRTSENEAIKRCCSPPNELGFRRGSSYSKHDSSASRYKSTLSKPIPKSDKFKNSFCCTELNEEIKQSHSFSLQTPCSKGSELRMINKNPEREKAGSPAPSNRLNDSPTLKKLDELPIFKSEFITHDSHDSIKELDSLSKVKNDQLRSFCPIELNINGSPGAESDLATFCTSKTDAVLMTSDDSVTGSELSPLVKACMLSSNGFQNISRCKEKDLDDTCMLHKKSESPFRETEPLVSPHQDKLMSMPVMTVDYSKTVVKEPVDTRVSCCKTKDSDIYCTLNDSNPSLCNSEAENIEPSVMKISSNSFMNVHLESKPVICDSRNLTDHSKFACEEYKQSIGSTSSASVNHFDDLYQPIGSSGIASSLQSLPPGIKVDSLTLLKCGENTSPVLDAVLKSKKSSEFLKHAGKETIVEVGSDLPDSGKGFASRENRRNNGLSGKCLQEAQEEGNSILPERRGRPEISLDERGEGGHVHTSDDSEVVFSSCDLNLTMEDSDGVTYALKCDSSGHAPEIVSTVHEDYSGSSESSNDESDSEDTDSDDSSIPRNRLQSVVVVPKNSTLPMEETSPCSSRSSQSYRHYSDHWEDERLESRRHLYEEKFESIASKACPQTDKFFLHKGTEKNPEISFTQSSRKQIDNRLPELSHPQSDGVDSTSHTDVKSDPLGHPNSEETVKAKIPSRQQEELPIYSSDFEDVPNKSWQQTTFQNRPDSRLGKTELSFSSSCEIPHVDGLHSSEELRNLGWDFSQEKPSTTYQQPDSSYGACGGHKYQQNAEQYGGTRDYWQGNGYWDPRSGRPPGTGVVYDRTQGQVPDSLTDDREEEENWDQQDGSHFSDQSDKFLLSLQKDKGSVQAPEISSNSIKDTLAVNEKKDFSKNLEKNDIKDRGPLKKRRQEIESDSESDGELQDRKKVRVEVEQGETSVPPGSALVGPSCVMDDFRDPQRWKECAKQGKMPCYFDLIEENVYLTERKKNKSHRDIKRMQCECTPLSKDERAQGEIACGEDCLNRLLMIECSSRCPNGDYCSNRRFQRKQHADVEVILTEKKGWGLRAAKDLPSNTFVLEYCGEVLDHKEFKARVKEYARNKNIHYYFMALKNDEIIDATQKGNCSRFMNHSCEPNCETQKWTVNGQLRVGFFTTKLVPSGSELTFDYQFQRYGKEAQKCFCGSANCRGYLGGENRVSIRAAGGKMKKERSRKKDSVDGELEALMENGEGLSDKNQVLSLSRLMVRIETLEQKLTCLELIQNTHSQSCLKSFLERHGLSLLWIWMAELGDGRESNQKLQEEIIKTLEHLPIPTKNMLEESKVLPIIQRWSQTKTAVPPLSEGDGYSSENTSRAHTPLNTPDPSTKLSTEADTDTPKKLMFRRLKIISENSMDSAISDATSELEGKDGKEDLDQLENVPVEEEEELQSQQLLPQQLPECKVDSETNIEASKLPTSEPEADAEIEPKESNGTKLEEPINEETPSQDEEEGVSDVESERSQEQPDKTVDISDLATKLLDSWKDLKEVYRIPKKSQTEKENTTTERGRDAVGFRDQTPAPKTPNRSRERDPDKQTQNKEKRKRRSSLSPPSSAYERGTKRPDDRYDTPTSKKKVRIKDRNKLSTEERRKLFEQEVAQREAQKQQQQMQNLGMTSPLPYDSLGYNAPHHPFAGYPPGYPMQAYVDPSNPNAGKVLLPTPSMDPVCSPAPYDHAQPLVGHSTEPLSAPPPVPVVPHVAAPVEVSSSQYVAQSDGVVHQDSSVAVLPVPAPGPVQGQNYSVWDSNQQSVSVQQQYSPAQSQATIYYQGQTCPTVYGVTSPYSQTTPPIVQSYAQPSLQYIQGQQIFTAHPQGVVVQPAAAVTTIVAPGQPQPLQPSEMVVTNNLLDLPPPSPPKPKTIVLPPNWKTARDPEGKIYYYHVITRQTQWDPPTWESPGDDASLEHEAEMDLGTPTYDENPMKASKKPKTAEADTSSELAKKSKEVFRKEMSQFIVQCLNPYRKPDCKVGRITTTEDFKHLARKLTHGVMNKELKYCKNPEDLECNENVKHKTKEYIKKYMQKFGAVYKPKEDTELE
Protocol: as §1

[6] = target: T5, SMYD3 (Homo sapiens, UniProt Q9H7B4); assay: Methyltransferase selectivity panel (MT HotSpot radioisotope assay), SMYD3; type: biochemical
T5 construct: purchased Reaction Biology (Malvern, PA, USA), contract assay
T5 sequence (Q9H7B4 1-428): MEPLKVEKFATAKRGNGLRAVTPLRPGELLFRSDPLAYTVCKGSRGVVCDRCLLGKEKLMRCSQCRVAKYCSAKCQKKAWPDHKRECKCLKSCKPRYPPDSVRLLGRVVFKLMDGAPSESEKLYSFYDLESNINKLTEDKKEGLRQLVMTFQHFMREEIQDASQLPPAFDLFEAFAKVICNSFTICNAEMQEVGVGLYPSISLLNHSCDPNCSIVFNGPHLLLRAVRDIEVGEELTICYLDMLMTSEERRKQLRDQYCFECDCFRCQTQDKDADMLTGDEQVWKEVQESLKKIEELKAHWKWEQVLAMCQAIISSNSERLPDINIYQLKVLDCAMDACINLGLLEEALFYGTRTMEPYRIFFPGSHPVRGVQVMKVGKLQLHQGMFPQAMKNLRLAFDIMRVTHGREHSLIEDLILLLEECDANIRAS
Protocol: as §1

[7] = system: MOLM-13 cells; assay: Combinatorial analysis of AML drugs with eltrombopag (EZ-cytox, Synergyfinder); type: cell-based; conditions: Homo sapiens, MOLM-13, 72 h, eltrombopag 0 nM; for inhibition at 0.00167 µM: AML drug alone 1.67 nM; for inhibition at 0.005 µM: AML drug alone 5 nM; for inhibition at 0.015 µM: AML drug alone 15 nM; for inhibition at 0.045 µM: AML drug alone 45 nM
Protocol: The MOLM-13 cells were seeded in white 96-well clear bottomed plates with 50 μL of medium (5000 cells/well). The plated cells were treated with serially diluted eltrombopag and current AML drugs, including venetoclax, cytarabine, gilteritinib, and sorafenib, to a final volume of 100 μL and incubated for 72 h at 37 °C. After incubation, 10 μL of EZ-cytox kit reagent from the EZ-cytox cell viability assay kit (DaeiLab) was added to each well and then incubated for 3 h at 37 °C. The absorbance of metabolically active cells was measured at a wavelength of 450 nm using a Victor multilabel reader (PerkinElmer). The synergy scores of each combination were quantified by the HAS model, ZIP model, Loewe additivity model, and Bliss independence models using Synergyfinder software. Positive or negative synergy scores obtained through these models represent synergy and antagonism, respectively.

[8] = target: T6, DOT1L (Homo sapiens, UniProt Q8TEK3); assay: Methyltransferase selectivity panel (MT HotSpot radioisotope assay), DOT1L; type: biochemical
T6 construct: purchased Reaction Biology (Malvern, PA, USA), contract assay
T6 sequence (Q8TEK3 whole entry): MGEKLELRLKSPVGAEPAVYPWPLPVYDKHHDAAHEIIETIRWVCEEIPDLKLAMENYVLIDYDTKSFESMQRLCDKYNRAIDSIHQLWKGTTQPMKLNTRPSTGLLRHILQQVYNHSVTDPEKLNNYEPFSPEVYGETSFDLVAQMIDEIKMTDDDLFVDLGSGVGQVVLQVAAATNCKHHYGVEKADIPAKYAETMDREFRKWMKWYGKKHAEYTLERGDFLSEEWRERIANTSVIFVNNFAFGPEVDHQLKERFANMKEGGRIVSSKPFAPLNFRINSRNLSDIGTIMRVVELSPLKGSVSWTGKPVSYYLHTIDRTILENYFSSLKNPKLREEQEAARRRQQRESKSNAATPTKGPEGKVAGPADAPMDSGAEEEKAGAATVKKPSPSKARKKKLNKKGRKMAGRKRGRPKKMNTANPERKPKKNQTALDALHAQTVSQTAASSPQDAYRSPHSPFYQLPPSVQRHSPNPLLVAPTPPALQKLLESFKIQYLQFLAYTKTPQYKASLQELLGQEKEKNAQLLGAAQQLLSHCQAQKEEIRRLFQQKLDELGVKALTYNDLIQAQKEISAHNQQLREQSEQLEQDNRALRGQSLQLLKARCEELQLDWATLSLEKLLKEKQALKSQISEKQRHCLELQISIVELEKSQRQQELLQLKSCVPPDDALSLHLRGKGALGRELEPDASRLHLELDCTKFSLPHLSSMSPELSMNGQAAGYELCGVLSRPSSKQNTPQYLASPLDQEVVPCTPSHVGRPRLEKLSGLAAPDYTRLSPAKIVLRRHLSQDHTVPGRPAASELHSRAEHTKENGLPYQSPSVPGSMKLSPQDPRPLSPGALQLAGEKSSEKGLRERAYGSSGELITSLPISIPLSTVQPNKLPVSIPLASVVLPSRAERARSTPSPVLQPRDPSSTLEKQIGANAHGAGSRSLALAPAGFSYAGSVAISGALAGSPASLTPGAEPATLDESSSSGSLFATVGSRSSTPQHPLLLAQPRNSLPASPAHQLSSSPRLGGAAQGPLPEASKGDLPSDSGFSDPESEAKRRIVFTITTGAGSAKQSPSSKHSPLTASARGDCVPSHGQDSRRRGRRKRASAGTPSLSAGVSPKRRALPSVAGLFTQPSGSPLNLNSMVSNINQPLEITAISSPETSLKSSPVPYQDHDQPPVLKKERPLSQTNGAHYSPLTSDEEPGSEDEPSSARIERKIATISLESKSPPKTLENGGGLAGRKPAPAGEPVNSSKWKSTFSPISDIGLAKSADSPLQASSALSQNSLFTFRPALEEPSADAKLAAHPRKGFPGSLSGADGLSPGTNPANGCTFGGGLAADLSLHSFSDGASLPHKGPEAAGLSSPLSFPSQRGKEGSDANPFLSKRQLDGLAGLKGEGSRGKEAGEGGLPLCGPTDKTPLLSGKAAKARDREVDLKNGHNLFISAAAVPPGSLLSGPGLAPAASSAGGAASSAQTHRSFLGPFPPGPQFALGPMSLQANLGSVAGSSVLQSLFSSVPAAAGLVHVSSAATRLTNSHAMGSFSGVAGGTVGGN
Protocol: as §1

[9] = system: m^6A methylation of MOLM-13 transcriptome; set-up: method as in PMID 33902106; conditions: cited from earlier work
[10] = system: MOLM-13 cells; assay: Anti-proliferative assay (EZ-cytox), MOLM-13; type: cell-based; conditions: Homo sapiens
Protocol: The MOLM-13, MOLM-14, HL60, MV4-11, and THP-1 cells were seeded in white 96-well clear bottomed plates with 100 μL of medium (5000 cells/well). The plated cells were treated with serially diluted compounds and incubated for 72 h at 37 °C. After incubation, 10 μL of EZ-cytox kit reagent from the EZ-cytox cell viability assay kit (DaeiLab, Seoul, Korea) was added to each well and then incubated for 3 h at 37 °C. The absorbance of metabolically active cells was measured at a wavelength of 450 nm using a Victor multilabel reader (PerkinElmer). The GI50 values were calculated by nonlinear regression analysis using OriginPro 9.1 software (OriginLab).

Molecule: COC(=O)c1cccc(-c2cccc(N/N=C3\C(=O)N(c4ccc(C)c(C)c4)N=C3C)c2O)c1 [Compound 14b]
- inhibition at 60 µM [1]: 23.7%

Molecule: CC1=NN(c2ccc(C)c(C)c2)C(=O)/C1=N\Nc1cccc(-c2cccc(C(=O)O)c2)c1 [Compound 14d]
- IC50 ([1]; full length METTL3-14 30 nM, SAM 300 nM, RNA substrate 300 nM, 1 h, read-out: IC50, METTL3-14 inhibition, bioluminescence enzyme based assay): 15.3 µM
- fold decrease of METTL3-14 inhibitory activity versus eltrombopag ([1]; relative to eltrombopag): 4 fold

Molecule: CC1(C)CCN(Cc2ccc(C(=O)NC[C@]3(O)CCCN(c4cc(NCc5ccccc5)ncn4)C3)c(O)c2)CC1 [UZH1a]
- maximum m^6A inhibition, previously reported [2]: 60–70%

Molecule: Nc1ncnc2c1ncn2[C@@H]1O[C@H](CSCC[C@H](N)C(=O)O)[C@@H](O)[C@H]1O [SAH, S-(5′-adenosyl)-L-homocysteine]
- IC50 [3]: 5.09 µM
- IC50 [4]: 4.16 µM
- IC50 [5]: 10.8 µM
- IC50 [6]: 35.3 µM

Molecule: Nc1ccn([C@@H]2O[C@H](CO)[C@@H](O)[C@@H]2O)c(=O)n1 [Cytarabine]
- inhibition at 0.00167 µM [7]: 2.2 ± 3.1%
- inhibition at 0.005 µM [7]: 20.7 ± 4.33%
- inhibition at 0.015 µM [7]: 48.3 ± 1.93%
- inhibition at 0.045 µM [7]: 75.7 ± 1.35%

Molecule: CN1C(=O)[C@@]23C[C@]4([C@]56C[C@@]78SS[C@@](CO)(C(=O)N7[C@H]5Nc5ccccc56)N(C)C8=O)c5ccccc5N[C@@H]4N2C(=O)[C@]1(CO)SS3 [Chaetocin]
- IC50 [8]: 0.217 µM

Molecule: RNA: RNA substrate 5′-ACGAGUCCUGGACUGAAACGGACUUGU-3′ (RNA, backbone not given here)
- Km [1]: 0.0705 µM

Molecule: STM2457
- share of hypermethylation, previously reported [9]: about 30%

Molecule: C[S+](CC[C@H](N)C(=O)O)C[C@H]1O[C@@H](n2cnc3c(N)ncnc32)[C@H](O)[C@@H]1O (stereo partly drawn) [SAM, S-(5′-adenosyl)-L-methionine]
- Km [1]: 0.0986 µM

Molecule: Nc1ncnc2c1ncn2[C@@H]1O[C@H](C[C@@H](N)CC[C@H](N)C(=O)O)[C@@H](O)[C@H]1O [Sinefungin, sinefungin]
- GI50 ([10]; MOLM-13, 72 h): 24.8 ± 1.2 µM

Molecule: CC1(C)CCC(CN2CCN(c3ccc(C(=O)NS(=O)(=O)c4ccc(NCC5CCOCC5)c([N+](=O)[O-])c4)c(Oc4cnc5[nH]ccc5c4)c3)CC2)=C(c2ccc(Cl)cc2)C1 [Venetoclax]
- inhibition at 0.00167 µM [7]: 12.8 ± 3.69%
- inhibition at 0.005 µM [7]: 29.2 ± 0.39%
- inhibition at 0.015 µM [7]: 54.5 ± 3.76%
- inhibition at 0.045 µM [7]: 77 ± 0.92%

Molecule: CC1=NN(c2ccc(C)c(C)c2)C(=O)/C1=N\Nc1cccc(-c2ccccc2)c1O [Compound 14a]
- inhibition at 60 µM [1]: 23.3%

Molecule: CCc1nc(C(N)=O)c(Nc2ccc(N3CCC(N4CCN(C)CC4)CC3)c(OC)c2)nc1NC1CCOCC1 [Gilteritinib]
- GI50 ([10]; MOLM-13, 72 h, positive control, Figure S3): 0.0166 µM

— PMC9032718, “Eltrombopag as an Allosteric Inhibitor of the METTL3-14 Complex Affecting the m^6A Methylation of RNA in Acute Myeloid Leukemia Cells” (Pharmaceuticals, 2022)
